Source: patent US20220273660A1, “MEK INHIBITOR FOR TREATMENT OF STROKE” (EDVINCE AB, priority 2019, published 2022)
Entries after “also recorded” stand apart in the source; their conditions may differ.

Assays:
[1] = system: rat basilar arteries; test: 48 h organ culture of basilar artery, endothelium function / vasodilation (carbachol, SNP, CGRP); format: cell-based; settings: 1 μM inhibitor
Protocol: Rats were sedated with O2/CO2 (30/70%) and sacrificed by decapitation. […] The basilar artery (BA) was carefully dissected from the brain in a physiological buffer solution followed by either OC (naïve animals) or directly mounted in a wire myograph (arteries from rats which has undergone surgical procedures). Segments were incubated for 48 hours at 37° C. in humidified 5% CO2/O2 in DMEM supplemented with streptomycin and penicillin with inhibitors or vehicle (DMSO). Culture media was changed after 24 hours.
(§1) For contractility measurements, both incubated BAs (ex vivo) and BAs after surgical procedure (in vivo) were cut into segments and mounted on a pair of metal wires (40 μm) in a myograph bath. The arteries from OC were mounted the same way after 48 hours in media. One wire was attached to a micro-meter screw which allows for fine adjustments of the distance between the wires, controlling the vascular tone.
(§2) The arterial segments were exposed two or three times with 60 mM K^+, by exchanging the buffer with a 60 mM K^+ buffer solution. To maintain equal osmolarity, a proportional amount of Na^+ had been removed from the buffer. An absolute cut-off was set at 2.0 mN K^+max for inclusion of arterial segments from rats that underwent the surgical procedure. Endothelium function was evaluated with the addition of 5-HT (3.10^−7 M) followed by carbachol (10^−5 M). For arteries from the OC the protocol was as followed: first a cumulative concentration-response curve to sarafotoxin 6C (S6c, 10^−14-10^−7 M), followed by a concentration-response curve to endothelin-1 (ET-1, 10^−14-10^−7 M). At peak ET-1 (10^−7 M), the buffer was changed to a Ca^2+-free buffer containing 10^−7 M ET-1 and nimodipine (L-type of voltage dependent Ca^2+ channel entry blocker, 10^−7 M). […] When vasodilation was investigated arteries was precontracted with U46619 (1.10^−7-3.10^−7 M) or K^+ (41 mM) and cumulative concentration-response curves was performed by adding calcitonin gene-related peptide (CGRP, 10^−12-10^−7 M), carbachol (10^−10-10^−5 M) or SNP (10^−11-10^−4 M).

[2] = Solubility (statement); format: physicochemical
[3] = system: rat subarachnoid haemorrhage model; test: Rat SAH model, intrathecal treatment, myograph of basilar arteries; format: in vivo
Protocol: as §1, §2
If there was only one curve above the cut-off, the concentration-response curve to ET-1 was prioritized. Segments with the highest K^+ response were generally allocated to the concentration-response curve to ET-1. […] The Ca^2+ free buffer solution had similar composition as above, but 1.5 mM CaCl2 was exchanged with 0.03 mM EDTA.
Contractile responses of each segment were adjusted according to the length of the artery and are expressed as mN/mm (Nm^−1). […] To compare ET-1 sensitivity, arteries were normalized to the percentage of the individual vessel ET-1max. When the artery reached maximum contraction before the last concentration was added, the curves were constrained to the max contraction. The relative log IC50/log EC50 is the concentration corresponding to a response midway between the estimates of the lower and upper plateaus. The Emax is the maximal contraction in the concentration response curve and ET-1max is the maximal contraction to ET-1. All quantitative data is presented as mean±standard error of the mean (SEM), unless otherwise stated.
Rats were anesthetized and prepared for cisternal infusion of autologous blood, which simulates a SAH. Sham-operated rats went through the same procedure, omitting the intracisternal blood injection of 300 μL. At the end of the procedure, a PinPort (PNP3F22, Instech, US) was placed at the end of the ICP catheter to provide access for intrathecal (i.t.) injectable treatments by a PinPort injector (PNP-3M, Instech, US). 24 hours post-surgery, the rats received s.c. injections of Carprofen (Norodyl, 5 mg/kg) (Scanvet, Denmark) for analgesia.
The intrathecal (i.t.) treatment volumes were estimated for a cerebrospinal fluid (CSF) volume of approximately 90 μL (21) and the total dose was administered as three treatments (4 hours, 10 hours and 24 hours) through the PinPort in the ICP catheter placed in the cisterna magna during the surgical procedure. The first and third injections were given under fixation of the rat. […] Animals were given 2.5 ml isotonic saline s.c. to avoid dehydration, immediately after surgery and in conjunction with the 10 hours and 24 hours treatments.

[4] = system: rat middle cerebral arteries (ETB receptor); test: 48 h in vitro organ culture of MCAs, wire myography (S6c, ET-1); format: cell-based
Protocol: MCAs from naïve rats were dissected and segments (1.5 mm) were incubated for 48 h in Dulbecco's modified Eagle's medium contained L-glutamine (584 mg/L) supplemented with penicillin (100 U/ml) and streptomycin ([…]) at humidified 5% CO2 atmosphere. Before incubation, 4 different concentrations of trametinib (5 μM, 1 μM, 0.1 μM or 0.03 μM), dissolved in 0.1% dimethyl sulfoxide (DMSO) in NaCl, or 0.1% DMSO in NaCl (vehicle) was added.

SMILES: CC(=O)Nc1cccc(-n2c(=O)n(C3CC3)c(=O)c3c(Nc4ccc(I)cc4F)n(C)c(=O)c(C)c32)c1 [trametinib]
- Emax following NO donor sodium nitroprusside (SNP) ([1]; 48 h OC): significant differences in the Emax
- response to CGRP ([1]; 48 h OC): No differences
- vasodilation in response to carbachol (10^-10-10^-5 M) ([1]; 48 h OC, precontracted with U46619 or K+): improved vasodilation
- endothelium function (10-5 M carbachol on arteries precontracted with 5-HT) vs DMSO ([1]; 48 h organ culture): significant better endothelium function; also recorded: significant increase
- solubility [2]: excellent solubility
- K+ responses compared to i.t. vehicle ([3]; SAH + i.t. treatment): higher K^+ responses
- contraction at low ET-1 concentrations (10^-12.5-10^-11.0 M), ET-1max normalised, vs SAH+vehicle ([3]; SAH + i.t. treatment): significantly reduced
- nimodipine insensitive ET-1max contraction ([3]; SAH + i.t. treatment, Ca2+ curve, 10^-7 M nimodipine): 1.8±0.5 Nm^−1
- contractile response of BAs to 60 mM K+ ([3]; SAH + i.t. treatment, all BAs incl. below cut-off): 5.00±0.29 Nm^−1
- endothelium function ([3]; animals treated in vivo i.t. after SAH): No significant changes
- increased ET-1-induced vasoconstriction of MCAs ([4]; 0.1 μM, 48 h OC): total blockage of the ETB receptor subtype response; also recorded: significantly inhibit; also recorded: inhibitory effect
- S6c-induced contraction of MCAs ([4]; 48 h OC, 5, 1, 0.1 or 0.03 μM, concentration-dependent): significantly inhibited
